Results on eight compounds are retold here after patent publication US9783513B2, “STAT3 inhibitors and their anticancer use” (Ohio State Innovation Foundation, priority 2012, dated 2017).

Entries after “also recorded” stand apart in the source; their conditions may differ. Where two headings read alike, the source gives them in different places.

Experiment [1] deals with human sarcoma cell line U2OS. In words: Cell viability (MTT) assay, U2OS. It counts as cell-based. How it is done:
(§1) Human sarcoma cell lines (RD2, RH30, U2OS) were seeded in 96-well plates at a density of 3,000 cells per well. The cells were incubated at 37° C. for a period of 24 hours. Different concentrations of LY-5 (0.1-10 μM), LY-3 (0.1-20 μM), and LLL12 (0.1-10 μM) prepared as a 20 mM stock solution in sterile DMSO were added in triplicate to the plates in the presence of 10% FBS. 3-(4,5-Dimethylthiazolyl)-2, 5-diphenyltetrazoliumbromide (MTT) was added to evaluate cell viability. The absorbance was read at 595 nm. IC50 values were determined using SigmaPlot 9.0 Software (Systat Software, Inc., San Jose, Calif.).
(§2) Alternatively, cells were seeded in 96-well plates in triplicate at a density of 3,000 cells per well and given 24 hours to adhere. Cells were then treated with varying concentrations of the inhibitors in the presence of 10% FBS. The cells were incubated for 72 hours at 37° C. 25 μl of MTT dye (Sigma, #M5655) was added to each sample and incubated for 3.5 hours. After this, 100 μl of N,N-dimethylformamide (Sigma, #D4551) solubilization solution was added to each well. The absorbance at 450 nm was read the following day. Half-Maximal inhibitory concentrations (IC50) were determined using Sigma Plot 9.0 software (Systat Software Inc.).
Table 6 below lists specific compounds as well as experimentally determined STAT3 activity in a cell-based assay. The STAT3 activity was determined using the cell viability assays with human sarcoma cell line U2OS as described above. The compounds in Table 6 were synthesized with methods identical or analogous to those described herein. The compound reference numbers (“Ref. No.”) in Table 6 correspond to the compound numbers used in Table 3.

The test system of experiment [2] is OSM induced STAT3 phosphorylation. In words: Western blot, OSM induced STAT3 phosphorylation. It counts as cell-based, human. The following applies: MCF-7; 1-2.5 μM; OSM 50 ng/mL. For orientation: A western blot detects proteins with antibodies after separation by electrophoresis.
The test system of experiment [3] is phosphorylated STAT3 (Tyr705). In words: Western blot, constitutive STAT3 phosphorylation. It counts as cell-based, human. Conditions: RH30.
For another experiment, the system named is STAT5. In words: Western blot, STAT5 after OSM stimulation. It counts as cell-based, human. The following applies: MCF-7; 1 and 2.5 μM; OSM 50 ng/mL. The method, then: (§3) RH30 cells were treated with DMSO, LY-5 (0.25-1 μM) and LY-3 (0.5-2.5 μM) prepared as a 20 mM stock solution in sterile DMSO at 60% to 80% confluence in the presence of 10% FBS for 24 hours. The sarcoma cell line EW8 was treated with DMSO and LY-5 (0.5-2.5 μM) prepared as a 20 mM stock solution in sterile DMSO at 60% to 80% confluence in the presence of 10% FBS for 24 hours. MCF-7 cells and DAOY cells were treated with DMSO, 25-50 ng/ml of IL-6, LY-5 (0.25-1 μM) or LY-3 (0.5-2.5 μM) prepared as a 20 mM stock solution in sterile DMSO, protein expressions of P-STAT3 (Tyr705) and STAT3 were tested. DAOY cells were treated with DMSO, 50 ng/ml of IFN-γ, LY-5 (1-5 μM) prepared as a 20 mM stock solution in sterile DMSO, protein expressions of P-STAT3 (Tyr705) and STAT3 were tested. MCF-7 cells were treated with DMSO, 50 ng/ml of OSM, LY-5 (1-2.5 μM) or LLL12 (1-2.5 μM) prepared as a 20 mM stock solution in sterile DMSO, protein expressions of P-STAT3 (Tyr705), P-STAT1, P-STAT5, P-ERK (T202/Y204), P-AKT, STAT3 and STAT1 were tested.
MCF-7 breast cancer cells were seeded in 10 cm plates and allowed to adhere overnight. The following day, the cells were serum-starved. The cells were then left untreated or were treated with LY-5 and LLL12 (1 μM and 2.5 μM) prepared as a 20 mM stock solution in sterile DMSO or DMSO. […] The cells were harvested after 30 minutes and analyzed by Western blot.

Experiment [4] has as its system human sarcoma cell line RH30. In words: Cell viability (MTT) assay, RH30. It counts as cell-based. The method, then:
as §1, §2
(§4) Table 7 below lists specific compounds as well as experimentally determined STAT3 activity in a cell-based assay. The STAT3 activity was determined using the cell viability assays with human sarcoma cell lines (RD2, RH30, U2OS) as described above. The compound reference numbers (“Ref. No.”) in Table 7 correspond to the compound numbers used in Table 3.

Experiment [5] has as its system IL-6 induced STAT3 phosphorylation. Put plainly: Western blot, IL-6 induced STAT3 phosphorylation. It counts as cell-based, human. Conditions: MCF-7; LY-3 0.5-2.5 μM, LY-5 0.25-1 μM; 5 h; IL-6 25 ng/mL. How it is done:
as §3
The cells were harvested and lysed in cold radioimmunoprecipitation assay (RIPA) lysis buffer containing […] and phosphatase inhibitor cocktail, and were subjected to SDS-PAGE. Then they were transferred to PVDF membrane. Membranes were probed with primary antibodies (1:1,000) and horseradish peroxidase (HRP)-conjugated secondary antibody (1:10,000) (Cell Signaling Technology, Beverly, Mass.). Membranes were analyzed using Enhanced Chemiluminescence Plus reagents and scanned with the Storm Scanner (Amersham Pharmacia Biotech, Inc., Piscataway, N.J.).
MCF-7 breast cancer cells were seeded in 10 cm plates and allowed to adhere overnight. The following day, the cells were serum-starved. The cells were then left untreated or were treated with LY-5 (0.25-1 μM) and LY-3 (0.5-2.5 μM) prepared as a 20 mM stock solution in sterile DMSO or DMSO. After 5 hours, the untreated and LY-5 and LY-3 treated cells were stimulated by IL-6 (25 ng/mL). The cells were harvested after 30 minutes and analyzed by Western blot. DAOY medulloblastoma cancer cells were seeded in 10 cm plates and allowed to adhere overnight. The following day, the cells were serum-starved. The cells were then left untreated or were treated with LY-5 (1-5 μM) prepared as a 20 mM stock solution in sterile DMSO or DMSO. After 2 hours, the untreated and LY-5 treated cells were stimulated by IL-6 (25 ng/mL). The cells were harvested after 30 minutes and analyzed by Western blot.

Experiment [6] relates to human sarcoma cell line RD2. In words: Cell viability (MTT) assay, RD2. Format: cell-based. How it is done: as §1, §2, §4
Another experiment has as its target STAT3 (Homo sapiens, UniProt P40763). Put plainly: Microscale thermophoresis binding to STAT3. Conditions: labeled STAT3 30 nM; LY17 1.52-50,000 nM. In general terms: In MST a laser heats a spot of the sample, and binding alters the fluorescence response.
Where [7] appears, read: Homo sapiens, Table 8, read-out: IC50 values vs. cell lines, U2OS.
Where [8] appears, read: Homo sapiens, Table 2, cell line not given, read-out: IC50.

STAT3, sequence (P40763 whole entry): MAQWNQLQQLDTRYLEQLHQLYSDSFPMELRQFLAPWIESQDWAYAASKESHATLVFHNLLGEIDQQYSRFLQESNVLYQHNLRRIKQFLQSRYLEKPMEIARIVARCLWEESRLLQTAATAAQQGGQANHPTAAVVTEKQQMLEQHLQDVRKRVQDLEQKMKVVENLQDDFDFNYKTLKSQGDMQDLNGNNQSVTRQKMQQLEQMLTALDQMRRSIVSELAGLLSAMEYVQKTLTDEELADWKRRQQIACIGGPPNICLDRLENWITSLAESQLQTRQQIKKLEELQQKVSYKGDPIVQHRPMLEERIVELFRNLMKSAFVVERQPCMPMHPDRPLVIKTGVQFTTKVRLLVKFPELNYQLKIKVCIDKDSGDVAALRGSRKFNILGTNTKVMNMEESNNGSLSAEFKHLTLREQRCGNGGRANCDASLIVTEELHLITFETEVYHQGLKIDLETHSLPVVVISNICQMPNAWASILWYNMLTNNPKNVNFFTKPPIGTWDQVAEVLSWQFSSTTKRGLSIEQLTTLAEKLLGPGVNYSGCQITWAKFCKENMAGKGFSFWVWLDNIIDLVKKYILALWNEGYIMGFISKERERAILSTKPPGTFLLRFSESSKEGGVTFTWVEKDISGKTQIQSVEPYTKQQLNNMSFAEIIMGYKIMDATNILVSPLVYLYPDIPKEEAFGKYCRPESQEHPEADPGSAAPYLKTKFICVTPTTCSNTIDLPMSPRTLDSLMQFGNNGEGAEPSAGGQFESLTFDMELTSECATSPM

The term IC50 denotes the concentration at which inhibition is half-maximal. With “4-(naphthalen-2-ylamino)-5H-naphtho[1,8-cd]isothiazol-5-one 1,1-dioxide [LY-6]”, in experiment [1] (Table 6, read-out: IC50), the IC50 stood at 2500 nM.

Take “5,8-dioxo-6-(phenylamino)-5,8-dihydronaphthalene-1-sulfonamide [LY-7]”: in experiment [1] (Table 2, cell line not given, read-out: IC50), the IC50 came to 2500 nM.

With `NS(=O)(=O)c1cccc2c1C(=O)c1cccc(O)c1C2=O` [LLL12, 5-hydroxy-9,10-dioxo-9,10-dihydroanthracene-1-sulfonamide, reference compound], the “OSM induced STAT3 phosphorylation” value in experiment [2] is recorded as “inhibit”. Besides, the IC50 in experiment [1] (setting [7]) is 1000 nM. Also, the “STAT3 phosphorylation at Y705 and S727” value in experiment [3] (5 μM in DMSO or ethanol, 2 h) is “decrease in STAT3 phosphorylation at Y705 and S727”. In addition, the “inhibition of STAT5” value with STAT5 is listed as “exhibit inhibition”.

Turning to `O=C1C(Nc2ccccc2)=CC2=NS(=O)(=O)c3cccc1c32` [LY-2, 4-(Phenylamino)-5H-naphtho[1,8-cd]isothiazol-5-one 1,1-dioxide], in experiment [1] (setting [8]), the IC50 came to 5000 nM.

Consider `O=C1C(Nc2ccc([N+](=O)[O-])cc2Cl)=CC2=NS(=O)(=O)c3cccc1c32` [LY-3, 4-((2-chloro-4-nitrophenyl)amino)-5H-naphtho[1,8-cd]isothiazol-5-one 1,1-dioxide], for which the half-maximal inhibitory concentration (IC50) in experiment [4] (Table 7, read-out: IC50 RH30) was 1140 nM; in experiment [4] (Table 8, read-out: IC50 values vs. cell lines, RH30), 1140 nM; in experiment [1] (setting [8]), 1400 nM; in experiment [1] (Homo sapiens, Table 7, read-out: IC50 U2OS), 1390 nM; in experiment [1] (setting [7]), 1390 nM; in experiment [6] (Table 7, read-out: IC50 RD2), 2560 nM. In addition, in experiment [6] (Table 8, read-out: IC50 values vs. cell lines, RD2), the 50% inhibitory concentration (IC50) came out at 2560 nM. Also, the “concentration almost completely inhibiting Tyr705 phosphorylation” value in experiment [3] (16 h) turned out to be 1 µM. The “constitutive STAT3 phosphorylation” value in experiment [3] (LY-3 0.5-2.5 μM, LY-5 0.25-1 μM, 16 h) is “decrease in STAT3 phosphorylation; also recorded: reduced in a dose-dependent manner”. Moreover, the “IL-6 induced STAT3 phosphorylation” value in experiment [5] is listed as “inhibit; also recorded: blocked the stimulation”.

In the case of `NS(=O)(=O)c1cccc2c1C(=O)C=C(Nc1ccccc1)C2=O` [LY-7, 5,8-dioxo-6-(phenylamino)-5,8-dihydronaphthalene-1-sulfonamide], the IC50 in experiment [1] (Homo sapiens, Table 6, read-out: IC50) was more than 5000 nM.

With `NC(=O)NS(=O)(=O)c1ccc(NC2=CC(=O)c3c(cccc3S(N)(=O)=O)C2=O)cc1` [LY-9], the IC50 in experiment [1] (setting [8]) was more than 5000 nM.

The term Kd denotes the constant that tells how readily two partners part at equilibrium. Lower therefore signals higher affinity. Regarding `NS(=O)(=O)c1cccc2c1C(=O)C=C(Nc1ccccc1N1CCNCC1)C2=O` [LY-17], the dissociation constant (Kd) on STAT3 was found to be 2420 nM.
